“Also recorded” adds a separate entry of the source.

For data set [1], the target named is T1, HA-HaloTag(D106A)-H-RasG12V (UniProt P01112+P0A3G2, C176G/D106A/G12V/H272F/K175M/Y273L).
T1 construct: The HaloTag protein was obtained from pHT2 vector (Promega); H-Ras carrying G12V (fusion partner, same polypeptide); expressed in transfected cells; host or cells: NIH-3T3, retroviral infection (pEYK3.1)
The data set is described as follows: Immunoblotting of HA-HaloTag(D106A)-H-RasG12V in NIH-3T3 cells. Format: cell-based. As to conditions: 1 μM, 24 hours. Here is the method: (§1) (a) NIH-3T3 cells were retrovirally infected with a construct expressing either HA-HaloTag-HRas(G12V) or HA-HaloTag(D106A)-HRas(G12V). The cells were then treated with vehicle or 1 μM HyT13 for 24 hours. The lysates were prepared for immunoblotting and the blots were probed with anti-HA and anti-β-actin antibodies. (b) One hundred thousand NIH-3T3 cells infected with HA-HaloTag-HRas(G12V) or HA-HaloTag(D106A)-HRas(G12V) were plated in 10% FBS containing medium onto 10-cm plates. The next day, the medium was replaced with 1% FBS containing medium, along with vehicle or 1 μM HyT13. The media was refreshed every 2 days, and the plates were pictured on day 6. Bar, 5 mm. (c) Quantification of foci as described in (b). The number of foci/cm^2 was counted from three separate plates, with error bars representing SEM. […] Tumor size was measured daily, and the tumor volume was calculated. […]
(§2) The indicated cells were washed twice with cold PBS and the cells were lysed in lysis buffer (1×PBS, 1% NP-40, 1 mM EDTA, 40 mM HEPES) with protease inhibitors. […] The total protein concentration was determined by Bradford assay and 50 μg of protein was loaded onto an 8% Bis-Tris gel. […] The blots were processed by standard procedures with indicated antibodies, and the band intensities were quantified by ImageJ. […]
In general terms: A western blot detects proteins with antibodies after separation by electrophoresis.

For data set [2], the system named is transmembrane HA-HaloTag fusion proteins (Ror2, CD3E, CD9, GPR40, Frizzled-4). Put plainly: Immunoblotting of transmembrane HA-HaloTag fusion proteins in HEK 293T cells. As to conditions: 1 μM, 24 hours. Format: cell-based.
Data set [3] addresses T2, HA-HaloTag-H-RasG12V (Rhodococcus rhodochrous, UniProt P0A3G2, C176G/H272F/K175M/Y273L).
T2 construct: The HaloTag protein was obtained from pHT2 vector (Promega); H-Ras carrying G12V (fusion partner, same polypeptide); expressed in transfected cells; host or cells: NIH-3T3, retroviral infection (pEYK3.1)
The data set is described as follows: Immunoblotting of HA-HaloTag-H-RasG12V in NIH-3T3 cells. Format: cell-based. As to conditions: 1 μM, 24 hours. Here is the method:
as §1, §2

The test system of data set [4] is HEK293 or HeLa cells. Put plainly: Cell viability with Resazurin (alamarBlue). Format: cell-based. The conditions noted are these: up to 20 μM, 24 hours. As for the experimental part:
HEK293 or HeLa cells were treated with indicated concentrations of HyT13 for 24 hours. The oxidation-reduction indicator Resazurin (alamarBlue, Invitrogen) was employed to determine cell viability.

A short description of data set [5]: Serum HyT13 determination (bio-reporter assay). Format: in vivo. The conditions noted are these: mouse, intraperitoneal, 25 mg/kg IP, Swiss Webster mice, read-out: blood serum concentration. As for the experimental part:
Webster Swiss mice received IP injections of 25 mg/kg of HyT13. The injection volume was 10 μL, consisting of 5 μL, of Cremophor EL excipient and 5 μL, of HyT13 in DMSO. Blood was collected from the carotid artery 1 and 24 hours after the injection. The blood was allowed to coagulate for 10 minutes, centrifuged at 10,000 g for 5 minutes and the serum was pipetted into a new tube. Ten microliters of the serum were used for a bio-reporter assay, consisting of the ability to degrade luciferase activity in HEK 293T luciferase-HaloTag cells. The serum concentration of HyT13 was based on a concentration curve of HyT13 performed alongside the bio-reporter assay. […] Each treatment group consisted of three mice. Shown is the mean serum HyT13 level±SEM.
To examine whether the HaloTag:HyT13 based system could be used in mouse models to relieve the H-RasG12V-driven tumor burden, we first evaluated the pharmacokinetics of HyT13. We performed a maximum tolerated dose experiment with HyT13 in nude mice at doses up to 100 mg/kg over a 14-day treatment regimen. […] Next, we sought to determine the serum bioavailability of HyT13 following injections. HyT13 was administered at 25 mg/kg by intraperitoneal (IP) injection into Swiss Webster mice and the serum was collected at 1 and 24 hours post-injection. […]
On the technique in general: A reporter such as luciferase makes a cellular process visible.

Regarding `O=C(CC12CC3CC(CC(C3)C1)C2)NCCOCCOCCCCCCCl` [HyT13, 2-((3r,5r,7r)-Adamantan-1-yl)-N-(2-(2-((6-chlorohexyl)oxy)ethoxy)ethyl)acetamide], the “degradation of HA-HaloTag(D106A)-H-RasG12V” value in data set [1] is on record as “unaffected”. Besides, the “degradation of transmembrane HaloTag fusion proteins” value in data set [2] is recorded as “efficiently induced their degradation”. Moreover, in data set [3], the “degradation of HA-HaloTag-H-RasG12V” value is given as “readily degraded”. In addition, the cellular toxicity entry in data set [4] is “No cellular toxicity was observed; also recorded: lack of noticeable HyT13 cytotoxicity; also recorded: exhibits no toxicity”. In addition, the concentration at 1 h in data set [5] (1 hour post administration) is approximately 2000 nM. For the same compound, in data set [5] (24 hours), the concentration at 24 h is approximately 500 nM.

Values taken from patent publication US10145848B2, “Small-molecule hydrophobic tagging of fusion proteins and induced degradation of same” (YALE UNIVERSITY, priority 2010, dated 2018).
